Entries after “also recorded” stand apart in the source; their conditions may differ.
What was measured:
Format in all cases: cell-based, Chinese Hamster
[1] = test system: Cell Line 2; test: Shake flask fed batch culture of Cell Line 2 (DVD 1), cell culture performance (Example 2); conditions: for viable cell density over time: 1, 30 and 50 mM vs control
Method: (§1) Two recombinant Chinese Hamster Ovary (CHO) cell lines expressing two different recombinant glycoproteins were evaluated in two different cultures vessels (shaker flasks and 3 L laboratory scale bioreactors). Cell Line 1 expressed Antibody 1, Cell Line 2 expressed Dual Variable Domain Immunoglobulin 1 (DVD 1) and Cell Line 3 expressed Antibody 2. Antibodies 1 and 2 are IgG1 proteins, and DVD 1 is an immunoglobulin with two variable domains as documented previously (Wu C. et al., (2007) Nat. Biotechnol 25(11):1290-1297). All cell lines were of CHO DUX-B11 origin based on a dhfr (dihydrofolate reductase) expression system. All cell lines were cultured in the same chemically defined basal media. Cell lines 1 and 2 were fed with the same chemically-defined feed media, but Cell Line 1 was fed media that was formulated at a 50% higher concentration. Each of the respective media were supplemented with either sucrose or tagatose to evaluate their potential impact on the resulting N-glycan oligosaccharide profile. All sugars were purchased from Sigma-Aldrich (St. Louis, Mo.). In preparation of the cultures, the cell lines were serially expanded through separate seed train inoculums to generate enough cells for inoculation.
(§2) Viable cell density (VCD) and cell viability values were measured through trypan blue exclusion via Cedex automated cell counters (Roche Applied Science, Indianapolis, Ind.), glucose and lactate values were measured with a ABL-805 (Radiometer Medical, Denmark) blood gas analyzer. Offline pH, dissolved oxygen (DO), and pCO2 measurements were performed with an ABL-805 (Radiometer Medical, Denmark) blood gas analyzer. Osmolality was measured on a Multi-Osmette 2430 osmometer (Precision Systems, Natick, Mass.).
(§3) Antibody titers were measured from crude cell culture harvests on a Poros A™ (Life Technologies, Carlsbad, Calif.) affinity column using an Agilent (Santa Clara, Calif.) 1200 Series HPLC, or equivalent, operating with a low pH, step elution gradient with detection at 280 nm. Absolute concentrations were assigned with respect to reference standard calibration curves.
Experimental results are expressed as mean±SD for those results generated from at least three independent cultures. Experimental results are expressed as the measured value for those results generated from less than three independent cultures. Results were evaluated for statistical significance through 2-sided t-tests, with a requirement of p<0.05 relative to the unsupplemented control conditions.
Cell Line 2 was cultured in shake flasks in fed batch mode after an abbreviated seed train. Sucrose and tagatose were supplemented into chemically-defined basal and feed media at concentrations of 1, 30, and 50 mM, and process performance results were compared to unsupplemented control conditions. The viable cell density (VCD), viability, and harvest titer results are shown in FIGS. 15A-15C for the sucrose supplemented cultures and FIGS. 16A-16C for the tagatose supplemented cultures.

[2] = test system: Cell Line 1; test: N-glycan oligosaccharide profiling, Cell Line 1 shake flasks (Example 1)
Method: (§4) Two recombinant Chinese Hamster Ovary (CHO) cell lines expressing two different humanized monoclonal antibodies (Antibody 1, Antibody 2) were evaluated in two different culture vessels (shaker flasks and laboratory scale bioreactors). Both cell lines were of CHO DUX-B11 origin based on a dhfr (dihydrofolate reductase) expression system. Both cell lines were cultured in the same chemically defined basal media (CDBM), with Cell Line 1 also utilizing a chemically-defined feed media (CDFM). Each of the respective media were supplemented with selected monosaccharides and oligosaccharides to evaluate their potential impact on the resulting N-glycan oligosaccharide profile. In preparing the cultures, the cell lines were serially expanded through separate seed train inoculums to generate enough cells for inoculation.
Purified antibodies subjected to additional analytical characterization were purified using MabSelect™ Protein A (GE Healthcare, Piscataway, N.J.) using a low pH, step elution gradient, followed by buffer exchange using Corning Lifesciences (Tewksbury, Mass.) Spin Concentrator X UF columns according to the manufacturers' recommended procedures.
Approximately 200 μg of Protein A purified samples from Cell Lines 1 and 2 were treated with N-glycanase at 37° C. overnight to remove the N-glycans from the protein. The protein was precipitated and the supernatant was taken for subsequent chemical derivatization of the reducing end of the released glycans with 2-aminobenzamide (2-AB) dye. Following the derivatization step, the excess label was removed using clean up cartridges and the samples were analyzed using normal phase HPLC with fluorescent detection. Mobile phase A was 100% acetonitrile and mobile phase B was 50 mM ammonium formate pH 4.4. The glycans were eluted from a polyamide column (Prozyme, Hayward, Calif.) using a shallow gradient. The labeled glycans were detected using a fluorescence detector with an excitation wavelength of 330 nm and an emission wavelength of 420 nm.
Cell Line 1 was cultured in shake flasks in fedbatch mode after an abbreviated seed train. Sucrose and tagatose were supplemented into chemically-defined basal and feed media at concentrations of 30, 50, and 70 mM, and compared to an unsupplemented control condition. The viable cell density (VCD), viability, and harvest titer results are shown in FIGS. 3A-3C and FIGS. 5A-5C for the sucrose, and tagatose conditions, respectively. Both sugars facilitated a slight decrease in VCD, with the higher concentrations also supporting the lowest peak VCD. […] As such, the upper threshold of sucrose or tagatose concentration should not be exceeded.

[3] = test system: Cell Line 1; test: 3 L laboratory-scale bioreactor culture of Cell Line 1, cell culture performance; conditions: for Osmolality / cell viability / lactate / pCO2 / viable cell density: 50 mM supplement vs control; for final harvest titer ratio: relative to unsupplemented control
Method: as §4
as §2, with “with a” for “with an”
as §3
3 L scale-down model bioreactors were utilized to verify the impact of select sugars on the resulting protein glycosylation profiles. The concentration of the sucrose and tagatose was chosen to minimize any potential adverse impact on cell growth and productivity, but still facilitate a measurable modulation of the glycosylation profile. Cell culture process performance indicators were monitored and measured throughout the respective cultures. Viable cell density, cell viability, lactate, pCO2, osmolality, harvest titer, and harvest N-glycan oligosaccharide data were measured and reported.
as §1
as §2, with “Osmolality was measured on a Multi-Osmette 2430 osmometer (Precision Systems, Natick, Mass.).” left out

[4] = 70 mM supplement, absolute % change vs control

Row | Compound | harvest titer reduction ([1]; 50 mM vs control) [%] | viable cell density over time [1] | cumulative increase in overall mannosylated N-glycans ([2]; 70 mM supplement vs control) [%] | decrease in NGA2F species ([2]; 70 mM supplement vs control) [%] | overall decrease in fucosylation level ([2]; 70 mM supplement vs control) [%] | increase in Man 5 species [2, 4] [%] | increase in Man 6 species [2, 4] [%] | increase in Man 7 species [2, 4] [%] | Osmolality [3] | cell viability [3] | lactate [3] | pCO2 [3] | viable cell density [3] | final harvest titer ratio ([3]; 50 mM supplement) | further results
1 | OC[C@H]1O[C@@](CO)(O[C@H]2O[C@H](CO)[C@@H](O)[C@H](O)[C@H]2O)[C@@H](O)[C@@H]1O [sucrose] | 48 | remained approximately the same | 43 | 51 | 44 | 24 | 12 | 7 | only slightly higher | no impact | only a nominal increase | no significant difference | no impact | 0.78 | reduction in peak VCD ([1]; 50 mM vs control): at most 2×10^6 cells/mL; increase in NGA2F-GlcNAc species ([2]; 70 mM supplement vs control): 7%
2 | O=C(CO)[C@@H](O)[C@@H](O)[C@H](O)CO [tagatose] | 38 | slightly higher compared to the control | 20 | 30 | 23 | ≤ 10 | 6 | 3 | higher; also recorded: only slightly higher | remained high throughout the culture | only a nominal increase | no significant difference | much more pronounced effect | 0.90 | relative harvest titer ([1]; 1 mM vs control): did not adversely impact relative harvest titer; viability after Day 8 ([1]; 30 mM and 50 mM vs control): remained higher than the control; harvest titer decrease ([1]; 30 mM vs control): 15%; increase in Man 8 species [2, 4]: 1%; peak VCD ([3]; 50 mM supplement): 8.5×10^6 cells/mL

Reference: patent US9499614B2, “Methods for modulating protein glycosylation profiles of recombinant protein therapeutics using monosaccharides and oligosaccharides” (AbbVie, Inc., priority 2013, dated 2016)
